Usually IC50 stands for the concentration that inhibits the measured activity by half.

Counter-ions that a name gives are not always drawn.

This passage reports IC50 results from patent publication US20080188528A1, “Modulators of C3a receptor and methods of use thereof” (priority 2006, published 2008).

The assay concerns the target T1, human C3a receptor (C3aR) (Homo sapiens, UniProt Q16581).
T1 construct: expressed in transfected cells
T1 sequence (Q16581 1-482): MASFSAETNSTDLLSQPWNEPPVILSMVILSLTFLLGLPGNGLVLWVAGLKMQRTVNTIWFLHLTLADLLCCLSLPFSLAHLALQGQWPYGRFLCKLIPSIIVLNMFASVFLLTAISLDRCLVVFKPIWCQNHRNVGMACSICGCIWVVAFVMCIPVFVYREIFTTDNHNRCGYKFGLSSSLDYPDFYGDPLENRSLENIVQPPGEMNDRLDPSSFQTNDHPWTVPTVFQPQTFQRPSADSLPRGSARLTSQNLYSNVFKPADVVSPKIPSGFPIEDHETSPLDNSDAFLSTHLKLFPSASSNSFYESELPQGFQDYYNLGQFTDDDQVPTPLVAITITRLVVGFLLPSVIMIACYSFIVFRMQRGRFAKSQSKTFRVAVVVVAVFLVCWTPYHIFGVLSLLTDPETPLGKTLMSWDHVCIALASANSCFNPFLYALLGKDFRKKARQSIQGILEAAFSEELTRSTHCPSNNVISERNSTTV
Briefly: Inhibition of human [125I]-C3a binding to human C3a receptor (SPA, membranes of HEK293 cells expressing recombinant C3aR). The settings on record: 0.1 nM [125I]-C3a, 3 hours at room temperature. The essentials: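 HEK293 C3aR membranes were pre-coupled to WGA SPA beads and incubated 3 h at room temperature with 0.1 nM [125I]-C3a in HEPES pH 7.4 buffer containing 0.25% BSA and 0.2% CHAPS, DMSO ≤1%. Nonspecific binding was defined with 1 μM unlabeled C3a. IC50 came from nonlinear least-squares fitting.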

As to `Cc1ccc(S(=O)(=O)NCCC[C@H](NC(=O)c2cccn(Cc3ccccc3)c2=O)C(=O)O)cc1` [Compound 67, (2S)-2-{[(1-benzyl-2-oxo-1,2-dihydropyridin-3-yl)carbonyl]amino}-5-{[(4-methylphenyl)sulfonyl]amino}pentanoic acid], under “Table 4”, the IC50 lay within 500 to 20000 nM.
`Cc1ccc(S(=O)(=O)NCCC[C@H](NC(=O)c2cccn(C(c3ccccc3)c3ccccc3)c2=O)C(=O)O)cc1` [Compound 68, (2S)-2-({[1-(diphenylmethyl)-2-oxo-1,2-dihydropyridin-3-yl]carbonyl}amino)-5-{[(4-methylphenyl)sulfonyl]amino}pentanoic acid]: the IC50 (Table 4) fell in the range of 500 to 20000 nM.
On the same count and under the same terms, under `CS(=O)(=O)NCCC[C@H](NC(=O)c1cccn(C(c2ccccc2)c2ccccc2)c1=O)C(=O)O` [Compound 69, (S)-2-(1-benzhydryl-2-oxo-1,2-dihydropyridine-3-carboxamido)-5-(methylsulfonamido)pentanoic acid] stands 50 to 500 nM.
Regarding `O=C(N[C@@H](CCCNC1=NCCN1)C(=O)O)c1cccn(Cc2ccccc2)c1=O` [Compound 70, (2S)-2-{[(1-benzyl-2-oxo-1,2-dihydropyridin-3-yl)carbonyl]amino}-5-(4,5-dihydro-1H-imidazol-2-ylamino)pentanoic acid•TFA], the IC50 (Table 4) was in the range of 500 to 20000 nM.
In the case of `O=C(N[C@@H](CCCNC1=NCCN1)C(=O)O)c1cccn(C(c2ccccc2)c2ccccc2)c1=O` [Compound 71, (2S)-5-(4,5-dihydro-1H-imidazol-2-ylamino)-2-({[1-(diphenylmethyl)-2-oxo-1,2-dihydropyridin-3-yl]carbonyl}amino)pentanoic acid•TFA], the IC50 (Table 4) is less than 50 nM.
Regarding `N=C(N)Nc1cccc([C@H](NC(=O)c2cccn(Cc3ccccc3)c2=O)C(=O)O)c1` [Compound 72, (2S)-{[(1-benzyl-2-oxo-1,2-dihydropyridin-3-yl)carbonyl]amino}(3-carbamimidamidophenyl)acetic acid•TFA], where the note is “Table 4”, the IC50 was in the range of 50 to 500 nM.
For the molecule `N=C(NCCC[C@H](NC(=O)c1cccn(Cc2ccccc2)c1=O)C(=O)O)N[N+](=O)[O-]` [Compound 73, (2S)-2-{[(1-benzyl-2-oxo-1,2-dihydropyridin-3-yl)carbonyl]amino}-5-(nitrocarbamimidamido)pentanoic acid], the IC50 (Table 4) is 500 to 20000 nM.
The same measure, in the same setting: under `N=C(NCCC[C@H](NC(=O)c1cccn(C(c2ccccc2)c2ccccc2)c1=O)C(=O)O)N[N+](=O)[O-]` [Compound 74, (2S)-2-({[1-(diphenylmethyl)-2-oxo-1,2-dihydropyridin-3-yl]carbonyl}amino)-5-(nitrocarbamimidamido)pentanoic acid] stands 50 to 500 nM; under `COC(=O)[C@H](CCCNC(=N)N[N+](=O)[O-])NC(=O)c1cccn(C(c2ccccc2)c2ccccc2)c1=O` [Compound 75, methyl (2S)-2-({[1-(diphenylmethyl)-2-oxo-1,2-dihydropyridin-3-yl]carbonyl}amino)-5-(nitrocarbamimidamido)pentanoate], 500 to 20000 nM.
For `Cc1ccc(S(=O)(=O)NC(=N)NCCC[C@H](NC(=O)c2cccn(Cc3ccccc3)c2=O)C(=O)O)cc1` [Compound 76, (2S)-2-{[(1-benzyl-2-oxo-1,2-dihydropyridin-3-yl)carbonyl]amino}-5-{[(4-methylphenyl)sulfonyl]carbamimidamido} pentanoic acid], the IC50 (Table 4) lay in the range of 500 to 20000 nM.
As for `Cc1ccc(S(=O)(=O)NC(=N)NCCC[C@H](NC(=O)c2cccn(C(c3ccccc3)c3ccccc3)c2=O)C(=O)O)cc1` [Compound 77, (2S)-2-({[1-(diphenylmethyl)-2-oxo-1,2-dihydropyridin-3-yl]carbonyl}amino)-5-{[(4-methylphenyl)sulfonyl]carbamimidamido}pentanoic acid], under “Table 4”, the IC50 lay within 50 to 500 nM.
On to `Cc1c(C)c(S(=O)(=O)NC(=N)Nc2cccc([C@H](NC(=O)c3cccn(Cc4ccccc4)c3=O)C(=O)O)c2)c(C)c2c1OC(C)(C)CC2` [Compound 78, (2S)-{[(1-benzyl-2-oxo-1,2-dihydropyridin-3-yl)carbonyl]amino}(3-{[(2,2,5,7,8-pentamethyl-3,4-dihydro-2H-chromen-6-yl)sulfonyl]carbamimidamido}phenyl)acetic acid], for which the IC50 (Table 4) was 500 to 20000 nM.
On to `Cc1c(C)c(S(=O)(=O)NC(=N)NCCC[C@H](NC(=O)c2cccn(CC(c3ccccc3)c3ccccc3)c2=O)C(=O)O)c(C)c2c1OC(C)(C)CC2` [Compound 79, (2S)-2-({[1-(2,2-diphenylethyl)-2-oxo-1,2-dihydropyridin-3-yl]carbonyl}amino)-5-{[(2,2,5,7,8-pentamethyl-3,4-dihydro-2H-chromen-6-yl)sulfonyl]carbamimidamido}pentanoic acid•TFA], for which the IC50 (Table 4) lay within 50 to 500 nM.
Turning to `COC(=O)[C@H](CCCNC(=N)N)NC(=O)c1cccn(C(c2ccccc2)c2ccccc2)c1=O` [Compound 80, methyl (2S)-5-carbamimidamido-2-({[1-(diphenylmethyl)-2-oxo-1,2-dihydropyridin-3-yl]carbonyl}amino)pentanoate], the IC50 (Table 4) is less than 50 nM.
Take `N=C(N)NCCC[C@H](NC(=O)c1cccn(C(c2ccccc2)c2ccccc2)c1=O)C(N)=O` [Compound 81, N-[(1S)-4-carbamimidamido-1-carbamoylbutyl]-1-(diphenylmethyl)-2-oxo-1,2-dihydropyridine-3-carboxamide-TFA]: the IC50 (Table 4) lay in the range of 500 to 20000 nM.
For the molecule `CCOC(=O)N=C(NCCC[C@H](NC(=O)c1cccn(C(c2ccccc2)c2ccccc2)c1=O)C(=O)O)NC(C)C` [Compound 82, (2S)-2-({[1-(diphenylmethyl)-2-oxo-1,2-dihydropyridin-3-yl]carbonyl}amino)-5-{[{(ethoxycarbonyl)amino}(isopropylamino)methylene]amino}pentanoic acid], the IC50 (Table 4) fell in the range of 50 to 500 nM.
Take `CCOC(=O)N=C(N)NCCC[C@H](NC(=O)c1cccn(C(c2ccccc2)c2ccccc2)c1=O)C(=O)O` [Compound 83, (2S)-2-({[1-(diphenylmethyl)-2-oxo-1,2-dihydropyridin-3-yl]carbonyl}amino)-5-[(ethoxycarbonyl)carbamimidamido]pentanoic acid]: for the setting “Table 4”, the IC50 is 500 to 20000 nM.
For the molecule `Cc1cc(Cc2ccccc2)c(=O)n(CC(=O)N[C@@H](CCCNC(=N)N)C(=O)O)c1` [Compound 84, (2S)-2-{[(3-benzyl-5-methyl-2-oxopyridin-1(2H)-yl)acetyl]amino}-5-carbamimidamidopentanoic acid•TFA], the IC50 (Table 5) lay within 500 to 20000 nM.
Turning to `O=C(N[C@@H](Cc1c[nH]cn1)C(=O)O)c1cccn(C(c2ccccc2)c2ccccc2)c1=O` [Compound 85, (2S)-2-({[1-(diphenylmethyl)-2-oxo-1,2-dihydropyridin-3-yl]carbonyl}amino)-3-(1H-imidazol-4-yl)propanoic acid•TFA], the 50% inhibitory concentration (IC50) (Table 5) was in the range of 50 to 500 nM.
`CC(=N)NCCC[C@H](NC(=O)c1cccn(C(c2ccccc2)c2ccccc2)c1=O)C(=O)O` [Compound 86, (2S)-2-({[1-(diphenylmethyl)-2-oxo-1,2-dihydropyridin-3-yl]carbonyl}amino)-5-(ethanimidoylamino)pentanoic acid•TFA]: the IC50 (Table 6) is less than 50 nM.
On to `N=C(N)NCCCC[C@H](NC(=O)c1cccn(C(c2ccccc2)c2ccccc2)c1=O)C(=O)O` [Compound 87, (2S)-6-Carbamimidamido-2-({[1-(diphenylmethyl)-2-oxo-1,2-dihydropyridin-3-yl]carbonyl}amino)hexanoic acid], for which the IC50 (Table 6) is less than 50 nM.
Take `CC(=N)NCCCC[C@H](NC(=O)c1cccn(C(c2ccccc2)c2ccccc2)c1=O)C(=O)O` [Compound 88, (2S)-2-({[1-(diphenylmethyl)-2-oxo-1,2-dihydropyridin-3-yl]carbonyl}amino)-6-(ethanimidoylamino)hexanoic acid•TFA]: for the setting “Table 6”, the IC50 is 50 to 500 nM.
Regarding `N=C(N)NCCC[C@@H](CC(=O)O)NC(=O)c1cccn(C(c2ccccc2)c2ccccc2)c1=O` [Compound 89, (3S)-6-Carbamimidamido-3-({[1-(diphenylmethyl)-2-oxo-1,2-dihydropyridin-3-yl]carbonyl}amino)hexanoic acid], the IC50 (Table 6) is less than 50 nM.
`CC(C)(C)Cn1cccc(C(=O)N[C@@H](CCCNC(=N)N)C(=O)O)c1=O` [Compound 90, (2S)-5-carbamimidamido-2-({[1-(2,2-dimethylpropyl)-2-oxo-1,2-dihydropyridin-3-yl]carbonyl}amino)pentanoic acid•TFA]: the IC50 (Table 6) is less than 50 nM.
As to `CC(=O)NCCC[C@H](NC(=O)c1cccn(C(c2ccccc2)c2ccccc2)c1=O)C(=O)O` [Compound 91, (2S)-5-(Acetylamino)-2-({[1-(diphenylmethyl)-2-oxo-1,2-dihydropyridin-3-yl]carbonyl}amino)pentanoic acid], the IC50 (Table 6) is 50 to 500 nM.
Consider `N/C(=N\O)NCCC[C@H](NC(=O)c1cccn(C(c2ccccc2)c2ccccc2)c1=O)C(=O)O` [Compound 92, (2S)-2-({[1-(Diphenylmethyl)-2-oxo-1,2-dihydropyridin-3-yl]carbonyl}amino)-5-(hydroxycarb-amimidamido)pentanoicacid], for which the IC50 (Table 6) is less than 50 nM.
